# According to patent US20260262643A1, “HERBICIDAL BENZOXAZINES” (FMC CORPORATION, priority 2022, published 2026):
# Legend:
# barnyardgrass [1] = assay: Test C preemergence; format: in vivo, Echinochloa crusgalli; details: 0 to 100 scale (0 no effect, 100 complete control)
# Summary of the method: (§1)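 Test material, in non-phytotoxic solvent with surfactant, was sprayed on the soil directly after seeding (preemergence) or on young plants of 2–10 cm with one to two leaves (postemergence). Greenhouse, 10 days; 0–100 visual control scale.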
# blackgrass [2] = assay: Test C preemergence; format: in vivo, Alopecurus myosuroides; details: 0 to 100 scale (0 no effect, 100 complete control)
# Summary of the method: as §1
# corn [3] = assay: Test C preemergence; format: in vivo, Zea mays; details: 0 to 100 scale (0 no effect, 100 complete control)
# Summary of the method: as §1
# green foxtail [4] = assay: Test C preemergence; format: in vivo, Setaria viridis; details: 0 to 100 scale (0 no effect, 100 complete control)
# Summary of the method: as §1
# kochia [5] = assay: Test C preemergence; format: in vivo, Bassia scoparia; details: 0 to 100 scale (0 no effect, 100 complete control)
# Summary of the method: as §1
# oat, wild [6] = assay: Test C preemergence; format: in vivo, Avena fatua; details: 0 to 100 scale (0 no effect, 100 complete control)
# Summary of the method: as §1
# pigweed, palmer [7] = assay: Test C preemergence; format: in vivo, Amaranthus palmeri; details: 0 to 100 scale (0 no effect, 100 complete control)
# Summary of the method: as §1
# ragweed [8] = assay: Test C preemergence; format: in vivo, Ambrosia artemisiifolia; details: 0 to 100 scale (0 no effect, 100 complete control)
# Summary of the method: as §1
# ryegrass, Italian [9] = assay: Test C preemergence; format: in vivo, Lolium multiflorum; details: 0 to 100 scale (0 no effect, 100 complete control)
# Summary of the method: as §1
# soybean [10] = assay: Test C preemergence; format: in vivo, Glycine max; details: 0 to 100 scale (0 no effect, 100 complete control)
# Summary of the method: as §1
# wheat [11] = assay: Test C preemergence; format: in vivo, Triticum aestivum; details: 0 to 100 scale (0 no effect, 100 complete control)
# Summary of the method: as §1
# barnyardgrass [12] = assay: Test C postemergence; format: in vivo, Echinochloa crusgalli; details: 10 days
# Summary of the method: as §1
# blackgrass [13] = assay: Test C postemergence; format: in vivo, Alopecurus myosuroides; details: 10 days
# Summary of the method: as §1
# corn [14] = assay: Test C postemergence; format: in vivo, Zea mays; details: 10 days
# Summary of the method: as §1
# green foxtail [15] = assay: Test C postemergence; format: in vivo, Setaria viridis; details: 10 days
# Summary of the method: as §1
# kochia [16] = assay: Test C postemergence; format: in vivo, Bassia scoparia; details: 10 days
# Summary of the method: as §1
# oat, wild [17] = assay: Test C postemergence; format: in vivo, Avena fatua; details: 10 days
# Summary of the method: as §1
# pigweed, palmer [18] = assay: Test C postemergence; format: in vivo, Amaranthus palmeri; details: 10 days
# Summary of the method: as §1
# ragweed [19] = assay: Test C postemergence; format: in vivo, Ambrosia artemisiifolia; details: 10 days
# Summary of the method: as §1
# ryegrass, Italian [20] = assay: Test C postemergence; format: in vivo, Lolium multiflorum; details: 10 days
# Summary of the method: as §1
# soybean [21] = assay: Test C postemergence; format: in vivo, Glycine max; details: 10 days
# Summary of the method: as §1
# wheat [22] = assay: Test C postemergence; format: in vivo, Triticum aestivum; details: 10 days
# Summary of the method: as §1
# horseweed = assay: Test C postemergence; format: in vivo, Erigeron canadensis; details: 10 days
# Summary of the method: as §1
# barnyardgrass [23] = assay: Test D flooded paddy test; format: in vivo, Echinochloa crus-galli; details: 250 g ai/ha, applied to paddy water, visual rating after 13 to 14 days, scale 0 to 100 (0 no effect, 100 complete control)
# Summary of the method: (§2)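 At the 2-leaf stage, floodwater 3 cm deep received the test compound; that depth persisted throughout. Plants scored visually 13 to 14 days on, 0 (no effect) to 100 (complete control), dash indicating no result.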
# ducksalad = assay: Test D flooded paddy test; format: in vivo, Heteranthera limosa; details: 250 g ai/ha, applied to paddy water, visual rating after 13 to 14 days, scale 0 to 100 (0 no effect, 100 complete control)
# Summary of the method: as §2
# rice = assay: Test D flooded paddy test; format: in vivo, Oryza sativa; details: 250 g ai/ha, applied to paddy water, visual rating after 13 to 14 days, scale 0 to 100 (0 no effect, 100 complete control)
# Summary of the method: as §2
# sedge, umbrella = assay: Test D flooded paddy test; format: in vivo, Cyperus difformis; details: 250 g ai/ha, applied to paddy water, visual rating after 13 to 14 days, scale 0 to 100 (0 no effect, 100 complete control)
# Summary of the method: as §2
# [24] = Preemergence, 500 g ai/ha, visual rating after 10 days
# [25] = Test C, preemergence, 125 g ai/ha
# [26] = 125 g ai/ha, postemergence, 0 to 100 scale, 0 no effect, 100 complete control
# [27] = Postemergence, 500 g ai/ha, visual 0 to 100 scale (0 no effect, 100 complete control)
smiles,measurement,setting,value
COc1cc(C(=O)N2C[C@H](C)Oc3c(Cl)cccc32)cc(-n2cnc(C3CCC3)n2)c1 [Compound 214],"Plant response rating, Barnyardgrass",barnyardgrass [1]; [24],100
same,Barnyardgrass plant response rating,barnyardgrass [1]; [25],50
same,"Plant response rating, Blackgrass",blackgrass [2]; [24],70
same,Blackgrass plant response rating,blackgrass [2]; [25],20
same,"Plant response rating, Corn",corn [3]; [24],20
same,Corn plant response rating,corn [3]; [25],10
same,"Plant response rating, Foxtail, Green",green foxtail [4]; [24],100
same,"Foxtail, Green plant response rating",green foxtail [4]; [25],100
same,"Plant response rating, Kochia",kochia [5]; [24],100
same,Kochia plant response rating,kochia [5]; [25],90
same,"Plant response rating, Oat, Wild","oat, wild [6]; [24]",80
same,"Oat, Wild plant response rating","oat, wild [6]; [25]",0
same,"Plant response rating, Pigweed, Palmer","pigweed, palmer [7]; [24]",100
same,"Pigweed, Palmer plant response rating","pigweed, palmer [7]; [25]",100
same,"Plant response rating, Ragweed",ragweed [8]; [24],0
same,Ragweed plant response rating,ragweed [8]; [25],10
same,"Plant response rating, Ryegrass, Italian","ryegrass, Italian [9]; [24]",90
same,"Ryegrass, Italian plant response rating","ryegrass, Italian [9]; [25]",80
same,"Plant response rating, Soybean",soybean [10]; [24],80
same,Soybean plant response rating,soybean [10]; [25],30
same,"Plant response rating, Wheat",wheat [11]; [24],30
same,Wheat plant response rating,wheat [11]; [25],10
same,"Plant response rating, Barnyardgrass",barnyardgrass [12]; [26],20
same,"Plant response rating, Barnyardgrass",barnyardgrass [12]; [27],20
same,"Plant response rating, Blackgrass",blackgrass [13]; [26],0
same,"Plant response rating, Blackgrass",blackgrass [13]; [27],80
same,"Plant response rating, Corn",corn [14]; [26],60
same,"Plant response rating, Corn",corn [14]; [27],70
same,"Plant response rating, Foxtail, Green",green foxtail [15]; [26],30
same,"Plant response rating, Foxtail, Green",green foxtail [15]; [27],80
same,"Plant response rating, Kochia",kochia [16]; [26],70
same,"Plant response rating, Kochia",kochia [16]; [27],100
same,"Plant response rating, Oat, Wild","oat, wild [17]; [26]",20
same,"Plant response rating, Oat, Wild","oat, wild [17]; [27]",20
same,"Plant response rating, Pigweed, Palmer","pigweed, palmer [18]; [26]",100
same,"Plant response rating, Pigweed, Palmer","pigweed, palmer [18]; [27]",100
same,"Plant response rating, Ragweed",ragweed [19]; [26],40
same,"Plant response rating, Ragweed",ragweed [19]; [27],40
same,"Plant response rating, Ryegrass, Italian","ryegrass, Italian [20]; [26]",20
same,"Plant response rating, Ryegrass, Italian","ryegrass, Italian [20]; [27]",40
same,"Plant response rating, Soybean",soybean [21]; [26],100
same,"Plant response rating, Soybean",soybean [21]; [27],100
same,"Plant response rating, Wheat",wheat [22]; [26],20
same,"Plant response rating, Wheat",wheat [22]; [27],30
same,"Plant response rating, Horseweed",horseweed; [26],0
same,"Plant response rating, Horseweed",horseweed; [27],40
same,"Plant response rating, Barnyardgrass (Flood)",barnyardgrass [23],0
same,"Plant response rating, Ducksalad (Flood)",ducksalad,70
same,"Plant response rating, Rice (Flood)",rice,0
same,"Plant response rating, Sedge, Umbrella (Flood)","sedge, umbrella",90
